Measured values from patent publication US9890432B2, “PRDM14 and FAM19A4, molecular diagnostic markers for HPV-induced invasive cancers and their high-grade precursor lesions” (SELF-SCREEN B.V., priority 2013, dated 2018).
“Also recorded” adds a separate entry of the source.

Tested on: PRDM14 mRNA expression in SiHa cervical cancer cells
Experiment: PRDM14 mRNA expression in SiHa cells after treatment with a DNA methylation inhibitor
Type: cell-based, human
Settings: DAC at 0.2 μM and 5 μM, controls PBS and ethanol
Method: Treatment of SiHa cervical cancer cells was performed with the methylation inhibitor 2′-deoxy-5′azacytidine (5′-aza or DAC) at 0.2 μM and 5 μM concentration. Other treatments were PBS and ethanol (EtOH). All treatments were in duplicate. Controls are human reference RNA and a -RT control (without reverse transcriptase added to the cDNA reaction mixture).

Structure (SMILES): Nc1ncn([C@H]2C[C@H](O)[C@@H](CO)O2)c(=O)n1 [DAC, 5-aza-2 deoxycytidine]
- PRDM14 mRNA expression: upregulated; also recorded: upregulation
